Source: US20190077856A1, “METHOD OF TREATING DISEASES USING KINASE MODULATORS” (Memorial Sloan Kettering Cancer Center, priority 2016, published 2019)

Experiments:
TPC1 [1] = test: Binding of TCR mimic antibody ESK and ADCC (chromium release) with ESK-M; format: cell-based, human
Description: FIG. 18A-FIG. 18B: AST487 increased cytolytic activity of TCRm antibody. FIG. 18A: TPC1 cells were treated with different doses of AST487 and binding of ESK (a TCR mimic monoclonal antibody specific for the WT1 RMF peptide/HLA-A02:01 complex) was measured. FIG. 18B: With increase of ESK binding in vitro, the effect on cytolytic activity of ESK was measured with an ADCC assay. TPC1 cells were treated with AST487 or DMSO for 72 hours and then incubated with chromium. Peripheral blood mononuclear cells (PBMCs), chromium labeled target cells, and ESK-M (or an isotype) were mixed and incubated for 5 hours. Varying effector to target ratios were used. Afterwards, chromium levels in the media were measured to determine percent specific lysis.
For FIG. 18A, TPC1 cells were treated with different doses of AST487 and binding of ESK (a TCR mimic monoclonal antibody specific for the WT1 RMF peptide/HLA-A02:01 complex) was measured. For FIG. 18B, with increase of ESK binding in vitro, the effect on cytolytic activity of ESK was measured with an antibody-dependent cell-mediated cytotoxicity (ADCC) assay. TPC1 cells were treated with AST487 or DMSO for 72 hours and then incubated with chromium. PBMCs, chromium labeled target cells, and ESK-M (or an isotype) were mixed and incubated for 5 hours. […] Afterwards, chromium levels in the media were measured to determine percent specific lysis.

TPC1 cells = test: In vivo treatment of subcutaneous TPC1 tumors, flow cytometry of tumor cells; parameters: species or system NRG mice; conditions: 7 days of treatment
Description: FIG. 19A-FIG. 19B: AST487 treatment in vivo increased surface HLA expression levels. FIG. 19A: NRG mice were injected with TPC1 cells and treated with vehicle (control) or AST487. BB7 and W6/32 binding on TPC1 cells were measured, and are shown in FIG. 19A (normalized to vehicle-treated mice) for vehicle-treated, 10 mg/kg AST487-treated, and 35 mg/kg AST487-treated mice. […] PD-L1 levels were measured as binding to anti-PD-L1 antibody.
NRG mice (Jackson labs NOD-Rag 1 null IL2rgnull, NOD rag gamma) were injected with TPC1 cells subcutaneously, and then treated 4 weeks later with vehicle (phosphate buffered saline) or with AST487 (a RET inhibitor) at a dose of 10 mg/kg or 35 mg/kg. After 7 days of treatment, tumors were harvested, and tumor cells were assessed for binding to BB7 (a monoclonal antibody specific to HLA-A02) and binding to W6/32 (a monoclonal antibody specific to pan HLA-ABC). Tumor cells were GFP-labeled and were distinguished from stroma and normal cells by gating for GFP in flow cytometry. […] One mouse in the vehicle control group was excluded as an outlier with 99% confidence interval as determined by Q test. PD-L1 expression by the tumor was also assessed by measuring binding of anti-PD-L1 antibody.

TPC1 [2] = test: Surface HLA-A02 and HLA-ABC by flow cytometry (BB7, W6/32) after 72 hours; format: cell-based, human; conditions: different doses
Description: (§1) FIG. 14A-FIG. 14C: TPC1 (a papillary thyroid cancer cell line) treated with AST487 increased HLA surface expression. FIG. 14A and FIG. 14B: TPC1 cells were seeded and treated with different doses of AST487 (a RET inhibitor). After 72 hours, cells were harvested and surface HLA-A02 and HLA-ABC were measured through flow cytometry with BB7 and W6/32 staining antibodies, respectively. FIG. 14C: After 24 hours of AST487 incubation, cells were lysed and a western blot was performed to show a decrease in pRET and pERK with AST487 treatment.
(§2) The effect of AST487, a RET inhibitor, on TPC1 (a papillary thyroid cancer cell line) was investigated. TPC1 cells were seeded and treated with different doses of AST487. After 72 hours, cells were harvested and surface HLA-A02 and HLA-ABC were measured through flow cytometry with BB7 and W6/32 staining antibodies, respectively (FIG. 14A-FIG. 14B).

TT cells = test: as above; format: cell-based, human; conditions: different doses
Description: FIG. 15A and FIG. 15B: TT cells were seeded and treated with different doses of AST487 (a RET inhibitor). After 72 hours, cells were harvested and surface HLA-A02 and HLA-ABC were measured through flow cytometry with BB7 and W6/32 staining antibodies, respectively. FIG. 15C: After 24 hours of AST487 incubation, cells were lysed and a western blot was performed. TT cells are derived from a medullary thyroid cancer that has a RET point mutation, as opposed to the TPC1 cells, which are derived from a papillary thyroid cancer and have a RET/PTC1 fusion.
The same analysis was performed in TT cells (a medullary thyroid cancer cell line). TT cells are derived from a medullary thyroid cancer that has a RET point mutation, as opposed to TPC1 cells, which are derived from a papillary thyroid cancer and have a RET/PTC1 fusion. TT cells were seeded and treated with different doses of AST487. After 72 hours, cells were harvested and surface HLA-A02 and HLA-ABC were measured through flow cytometry with BB7 and W6/32 staining antibodies, respectively (FIG. 15A-FIG. 15B). After 24 hours of AST487 incubation, cells were lysed and a western blot was performed (FIG. 15C).

pRET and pERK = test: Western blot for pRET and pERK after 24 hours; format: cell-based, human; conditions: TPC1
Description: as §1, §2

TPC1 [3] = test: qPCR of transcript levels of HLA and antigen processing machinery; format: cell-based, human; conditions: 24 or 48 hours
Description: Using qPCR, transcript levels of HLA and antigen processing machinery were measured after TPC1 cells were treated with AST487 for 24 (FIG. 17A) or 48 hours (FIG. 17B). Upregulation of mRNA levels for HLA and antigen processing machinery were seen.
Real-Time PCR: Total RNA was extracted using Qiagen RNA Easy Plus (Qiagen; #74134) after cells were treated for 48 hrs with indicated inhibitor. RNA was converted into cDNA using gScript™ cDNA SuperMix (Quanta Biosciences Gaithersburg, Md. USA). Real-time assays were conducted using TaqMan real-time probes. (Life Technlogies) for human HLA-A (Hs01058806_gl), B2M (Hs00187842_ml), TAP1 (Hs00388677_ml), TAP2 (Hs00241060_ml), and TBP (Hs00427620_ml) using 50 ng cDNA. For assessment of gene expression using RT-PCR PerfeCTa® FastMix® II (Quanta), reactions were carried out in triplicates using standard thermocycling conditions (2 minutes at 50° C., 10 minutes at 95° C., 40 cycles of 15 seconds at 95° C., and 1 minute at 60° C.). TBP was used as internal control and ΔΔCT method was used for relative mRNA calculations.
Next, using qPCR, transcript levels of HLA and antigen processing machinery were measured after TPC1 cells were treated with AST487 for 24 (FIG. 17, left panel) or 48 hours (FIG. 17, right panel). Upregulation of mRNA levels for HLA and antigen processing machinery were seen.

With `CCN1CCN(Cc2ccc(NC(=O)Nc3ccc(Oc4cc(NC)ncn4)cc3)cc2C(F)(F)F)CC1` [AST487, 1-[4-[(4-ethylpiperazin-1-yl)methyl]-3-(trifluoromethyl)phenyl]-3-[4-[6-(methylamino)pyrimidin-4-yl]oxyphenyl]urea] the “cytolytic activity of TCRm antibody (ADCC, ESK-M)” value (TPC1 [1]; 72 hours AST487, then PBMCs and ESK-M 5 hours) was “increased”, the ESK binding (TPC1 [1]; different doses) was “increase” and the “HLA-A02 expression (BB7 binding) on the surface of the tumor cells” value (TPC1 cells; 10 mg/kg or 35 mg/kg) was “increased”. For the same compound, the “pan HLA-ABC expression (W6/32 binding) on the surface of the tumor cells” value (TPC1 cells; 10 mg/kg or 35 mg/kg) was “increased”, the “expression of PD-L1 by the tumor” value (TPC1 cells; anti-PD-L1 antibody binding) was “did not change” and the “HLA class I surface expression” value (TPC1 [2]) was “increased”. The “surface HLA-A” value (TT cells) was “upregulated”, the “pRET and pERK” value (pRET and pERK) was “decrease” and the “mRNA levels for HLA and antigen processing machinery” value (TPC1 [3]) was “Upregulation”.
